For two compounds, Ki results are on record in BindingDB's records for doi:10.1021/jm030050p (Johnson & Johnson Pharmaceutical Research & Development, 2003).

For orientation: pKi means the Ki on a negative log10 scale, so that one unit is a factor of ten.

In this test the target is Trypsin (Bos taurus). Kind of test: In vitro inhibition of bovine trypsin.

pKi: −log10 of the molar value. Counter-ions that a name gives are not always drawn.

`CC(=O)N1C[C@H](O)C[C@H]1C(=O)NC(CCCN)C(=O)c1nc2ccccc2s1` (some centres not stated) [1-Acetyl-4-hydroxy-pyrrolidine-2-carboxylic acid [4-amino-1-(benzothiazole-2-carbonyl)-butyl]-amide; TFA] showed a pKi of 7.80.
In the case of `COS(=O)(=O)N1CCC[C@H]1C(=O)N[C@@H](CCCNC(=N)N)C(=O)c1nc2ccccc2s1` [2-[1-(Benzothiazole-2-carbonyl)-4-guanidino-butylcarbamoyl]-pyrrolidine-1-sulfonic acid methyl ester; TFA] it was 7.42.
